Patent US20110039762A1, “TARGETED ANTIMICROBIAL MOIETIES” (C3 JIAN, INC., priority 2009, published 2011)
Entries after “also recorded” stand apart in the source; their conditions may differ.

Test system: microorganisms (e.g., bacteria, yeasts, fungi)
Assay: Targeting peptide binding to target microorganisms (Table 3)
Conditions: preferably 1x PBS; for Target(s): microorganism(s) the targeting peptide binds, peptide binding conducted in aqueous buffers varied by peptide solubility; for Target(s) (microorganisms bound by the targeting peptide): peptide binding in aqueous buffers varied by peptide solubility

Substance	Target(s)	Target(s) (microorganisms bound by the targeting peptide)
PF-504 (ILSVELSTKTSASGS; Peptide with targeting and/or antimicrobial activity)	S. mutans; also recorded: E. coli	–
PF-505 (GYTKDPGTGI; Peptide with targeting and/or antimicrobial activity)	S. mutans	–
PF-506 (SGRGFALIVVLFILLIIVGAACIR; Peptide with targeting and/or antimicrobial activity)	S. mutans; also recorded: E. coli	–
PF-507 (LALSIANLFKKKA; Peptide with targeting and/or antimicrobial activity)	S. mutans; also recorded: E. coli	–
PF-508 (VSTFGKVVKVVDEK; Peptide with targeting and/or antimicrobial activity)	S. mutans	–
PF-509 (EAKVQAKGEQIACNNY; Peptide with targeting and/or antimicrobial activity)	S. mutans; also recorded: B. subtilis; also recorded: E. coli	–
PF-510 (WYLYKKQSNQNDRGIPK; Peptide with targeting and/or antimicrobial activity)	S. mutans; also recorded: E. coli	–
PF-568 (TQAVQVKTAQAQQQ; Peptide with targeting and/or antimicrobial activity)	S. epidermidis	–
PF-570 (KKFPTEESHIQAVLEFKKLTEHPSG; Peptide with targeting and/or antimicrobial activity)	S. pneumoniae; also recorded: C. jeikeium	–
PF-641 (SWKCHHLAIGGSWKCHHLAI; Peptide with targeting and/or antimicrobial activity)	–	S. epidermidis and M. luteus and E. coli and C. albicans and MRSA and E. faecalis and C. jeikeium and C. jejuni
PF-648 (ARRYPAAGS; Peptide with targeting and/or antimicrobial activity)	–	S. mutans; also recorded: E. coli
PF-650 (IRSDQPGRQSRSSPRWPTGAGRHR; Peptide with targeting and/or antimicrobial activity)	–	Mycobacteria spp
PF-669 (RADRIESYPADGDRVITLWRNPYR; Peptide with targeting and/or antimicrobial activity)	–	Mycobacteria spp
PF-671 (TVSAFRTVH; Peptide with targeting and/or antimicrobial activity)	–	S. mutans; also recorded: E. coli
PF-673 (VRRLRM; Peptide with targeting and/or antimicrobial activity)	–	S. mutans; also recorded: E. coli
PF-674 (DGCDSEPALTYR; Peptide with targeting and/or antimicrobial activity)	–	S. mutans; also recorded: E. coli
PF-676 (AEYRGL; Peptide with targeting and/or antimicrobial activity)	–	S. mutans; also recorded: E. coli
PF-678 (RDRRWTRRDMYDWLESARV; Peptide with targeting and/or antimicrobial activity)	–	Mycobacteria spp
PF-679 (CRARFIRR; Peptide with targeting and/or antimicrobial activity)	–	S. mutans; also recorded: E. coli
PF-689 (SAPSG; Peptide with targeting and/or antimicrobial activity)	–	S. mutans; also recorded: E. coli
PF-701 (PRGAQSGHG; Peptide with targeting and/or antimicrobial activity)	–	S. mutans
PF-703 (MTTVDNIVGLVIAVALMAFLFAALLFPEKF; Peptide with targeting and/or antimicrobial activity)	–	Mycobacteria spp
PF-705 (GEEEGTVAD; Peptide with targeting and/or antimicrobial activity)	–	S. mutans; also recorded: E. coli
PF-706 (LGYGAWIGCGLGLNGFHRID; Peptide with targeting and/or antimicrobial activity)	–	L. pneumophila
PF-707 (IDPESIVTTNNKQDNVDEQ; Peptide with targeting and/or antimicrobial activity)	–	S. mutans; also recorded: E. coli
PF-709 (NKKHSPMD; Peptide with targeting and/or antimicrobial activity)	–	S. mutans
PF-711 (KTAGPTGTIYKTN; Peptide with targeting and/or antimicrobial activity)	–	S. mutans

Substance	Target(s)	Target(s) (microorganisms bound by the targeting peptide)
PF-712 (QIYRHVHKVQAKSANLRLY; Peptide with targeting and/or antimicrobial activity)	–	S. mutans; also recorded: E. coli
PF-714 (FVVTQRMLRMYKK; Peptide with targeting and/or antimicrobial activity)	–	L. pneumophila
PF-716 (HGENHHHKSDEKDNDSSEKKD; Peptide with targeting and/or antimicrobial activity)	–	S. mutans
PF-717 (PQSEVTFENIYAPKANGGGLYGI; Peptide with targeting and/or antimicrobial activity)	–	E. coli
PF-720 (SLDMGK; Peptide with targeting and/or antimicrobial activity)	–	S. mutans
PF-724 (CYRFLTPKRPTRIS; Peptide with targeting and/or antimicrobial activity)	–	L. pneumophila
PF-727 (AYARCRHDYPFTLGQMQTH; Peptide with targeting and/or antimicrobial activity)	–	S. mutans; also recorded: E. coli
PF-728 (AIGQEQDRREYYYYSGYPYYY; Peptide with targeting and/or antimicrobial activity)	–	S. mutans; also recorded: E. coli
PF-731 (RHKLIRLPLSESVFCFLNNPKI; Peptide with targeting and/or antimicrobial activity)	–	L. pneumophila
PF-732 (DRPSQTTHHTLSSSRITGPS; Peptide with targeting and/or antimicrobial activity)	–	E. coli
PF-733 (VISRQMGSEAVLELFIIM; Peptide with targeting and/or antimicrobial activity)	–	S. mutans; also recorded: E. coli
PF-735 (YDPLFPNDKN; Peptide with targeting and/or antimicrobial activity)	–	S. mutans; also recorded: E. coli
PF-750 (AESSPAKTTA; Peptide with targeting and/or antimicrobial activity)	–	M. luteus; also recorded: C. jeikeium
PF-751 (AESSPAQETT; Peptide with targeting and/or antimicrobial activity)	–	S. epidermidis; also recorded: E. coli; also recorded: C. albicans; also recorded: C. jeikeium
PF-765 (YLYWEVEHKPIIAKRDAYYAQLRKQKEIEEGA; Peptide with targeting and/or antimicrobial activity)	–	S. epidermidis and M. luteus and E. coli and MRSA and E. faecalis and C. jeikeium
PF-766 (DAYYAQLRKQKEIEEGA; Peptide with targeting and/or antimicrobial activity)	–	S. epidermidis and M. luteus and C. albicans and MRSA and E. faecalis and C. jeikeium
PF-767 (DGKQGEPVALKPTDN; Peptide with targeting and/or antimicrobial activity)	–	S. epidermidis and M. luteus and E. coli and MRSA and S. pneumoniae and E. faecalis and C. jeikeium
PF-768 (GFRGGKRGGARG; Peptide with targeting and/or antimicrobial activity)	–	S. epidermidis; also recorded: S. pneumoniae; also recorded: E. faecalis; also recorded: C. jeikeium
PF-772 (TKESSS; Peptide with targeting and/or antimicrobial activity)	–	S. epidermidis and C. albicans and MRSA and S. pneumoniae and C. jeikeium
PF-773 (TLKESK; Peptide with targeting and/or antimicrobial activity)	–	S. epidermidis; also recorded: C. albicans; also recorded: C. jeikeium
PF-777 (PGADGKLAEASAAIARLVRS; Peptide with targeting and/or antimicrobial activity)	–	Mycobacteria spp.
PF-778 (MNLILTAHGT; Peptide with targeting and/or antimicrobial activity)	–	Mycobacteria spp.
PF-779 (IYGDFFNFYLCDISLKVNGLQPGGPVRTVKLFGQPTGRCTPQ; Peptide with targeting and/or antimicrobial activity)	–	Mycobacteria spp.
PF-780 (AVYDALVALAAAEHRAELATRDARAKDTYEKIGVHVVVAA; Peptide with targeting and/or antimicrobial activity)	–	Mycobacteria spp.
PF-781 (PLVVVNHRRAERSRG; Peptide with targeting and/or antimicrobial activity)	–	Mycobacteria spp.
PF-782 (TGPRRGIDLTSNRALSEVLDEGLELNSRK; Peptide with targeting and/or antimicrobial activity)	–	Mycobacteria spp.
